From PMC10669046, “Probing the Proton-Gated ASIC Channels Using Tetraalkylammonium Ions” (Biomolecules, 2023)
One block for each molecule: values may come before it.

Legend:
ASIC1a [1] = biological target: T1, ASIC1a (Rattus norvegicus, UniProt P55926); assay: cell-based; conditions: CHO, read-out: whole-cell patch clamp in transfected CHO cells; 10 mM, voltage-dependent inhibi
T1 construct: gene Asic1
T1 sequence (P55926 1-526): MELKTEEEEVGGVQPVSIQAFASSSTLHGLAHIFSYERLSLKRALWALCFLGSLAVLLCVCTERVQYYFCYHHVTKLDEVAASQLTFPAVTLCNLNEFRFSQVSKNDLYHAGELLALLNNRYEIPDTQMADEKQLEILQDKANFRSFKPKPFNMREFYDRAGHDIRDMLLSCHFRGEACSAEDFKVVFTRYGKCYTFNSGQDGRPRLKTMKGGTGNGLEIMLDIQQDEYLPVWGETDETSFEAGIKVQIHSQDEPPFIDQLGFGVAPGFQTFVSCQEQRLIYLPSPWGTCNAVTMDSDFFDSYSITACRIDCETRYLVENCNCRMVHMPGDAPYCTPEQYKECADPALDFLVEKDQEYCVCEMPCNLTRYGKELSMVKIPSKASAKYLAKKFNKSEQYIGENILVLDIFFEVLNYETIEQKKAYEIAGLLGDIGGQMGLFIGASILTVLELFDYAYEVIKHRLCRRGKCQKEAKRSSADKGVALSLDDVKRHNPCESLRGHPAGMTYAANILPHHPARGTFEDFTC

ASIC1a [2] = biological target: T1, ASIC1a; assay: whole-cell patch clamp in transfected CHO cells; […], pH […], Idrug/Icontrol = […]; assay type: cell-based; conditions: pH 6.5, read-out: whole-cell patch clamp in transfected CHO cells, 5 mM, pH 6.5, Idrug/Icontrol =
ASIC2a = biological target: T2, ASIC2a (Rattus norvegicus, UniProt Q62962); assay: whole-cell patch clamp in transfected CHO cells; […], pH […], peak Idrug/Icontrol = […]; assay type: cell-based; conditions: pH 5, read-out: whole-cell patch clamp in transfected CHO cells, 5 mM, pH 5.0, peak Idrug/Icontr
T2 construct: gene Asic2
T2 sequence (Q62962 1-512): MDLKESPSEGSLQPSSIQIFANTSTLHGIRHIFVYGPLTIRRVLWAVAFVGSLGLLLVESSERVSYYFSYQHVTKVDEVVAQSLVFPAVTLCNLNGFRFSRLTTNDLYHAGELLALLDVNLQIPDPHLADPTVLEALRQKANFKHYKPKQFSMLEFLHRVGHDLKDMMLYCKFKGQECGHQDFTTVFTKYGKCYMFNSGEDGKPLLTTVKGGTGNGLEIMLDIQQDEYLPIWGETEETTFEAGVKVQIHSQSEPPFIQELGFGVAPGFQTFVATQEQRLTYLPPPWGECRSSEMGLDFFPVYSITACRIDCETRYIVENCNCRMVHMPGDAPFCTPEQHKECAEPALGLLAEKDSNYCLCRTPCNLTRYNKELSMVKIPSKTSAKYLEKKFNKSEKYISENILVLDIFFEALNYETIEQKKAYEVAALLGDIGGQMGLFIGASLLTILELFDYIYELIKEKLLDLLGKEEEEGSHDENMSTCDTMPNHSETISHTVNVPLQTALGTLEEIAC

ASIC3 = biological target: T3, ASIC3 (Rattus norvegicus, UniProt O35240); assay: cell-based; conditions: CHO, read-out: whole-cell patch clamp in transfected CHO cells; potentiation of the sustained c
T3 sequence (O35240 1-533): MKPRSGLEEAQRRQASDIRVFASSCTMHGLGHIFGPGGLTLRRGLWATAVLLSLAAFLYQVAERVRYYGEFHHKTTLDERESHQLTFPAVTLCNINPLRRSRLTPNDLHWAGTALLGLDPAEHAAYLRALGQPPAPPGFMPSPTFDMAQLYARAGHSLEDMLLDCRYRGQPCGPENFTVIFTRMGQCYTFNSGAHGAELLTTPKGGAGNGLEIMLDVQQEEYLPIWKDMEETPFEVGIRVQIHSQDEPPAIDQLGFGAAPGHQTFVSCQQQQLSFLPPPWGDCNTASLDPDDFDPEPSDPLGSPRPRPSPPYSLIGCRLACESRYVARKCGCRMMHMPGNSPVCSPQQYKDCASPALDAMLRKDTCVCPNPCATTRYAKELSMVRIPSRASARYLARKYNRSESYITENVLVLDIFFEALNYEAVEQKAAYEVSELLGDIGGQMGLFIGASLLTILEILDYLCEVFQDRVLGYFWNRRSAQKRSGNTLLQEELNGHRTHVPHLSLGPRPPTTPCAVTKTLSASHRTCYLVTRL

Structure (SMILES): CC[N+](CC)(CC)CC [TEA, tetraethylammonium]
activity at 10000 µM (ASIC1a [1]): 70 ± 13%

Structure (SMILES): CCCCC[N+](CCCCC)(CCCCC)CCCCC [TPtA, tetrapentylammonium]
remaining activity at 5000 µM (ASIC1a [2]): 41 ± 6% | activity at 5000 µM (ASIC2a): 71 ± 18%

activity at 1000 µM (ASIC3): 112 ± 8%
Structure (SMILES): CCCC[N+](CCCC)(CCCC)CCCC [TBA, tetrabutylammonium]
